Laboratory results as given in BindingDB's records for doi:10.1080/14756360109162375 (University of North Carolina, 2001).

What follows are compounds tested against T1, N(4)-(beta-N-acetylglucosaminyl)-L-asparaginase (Homo sapiens, UniProt P20933) (assay: Inhibition Assay). Conditions: pH 5.8; 37 °C.
T1 sequence (P20933 whole entry): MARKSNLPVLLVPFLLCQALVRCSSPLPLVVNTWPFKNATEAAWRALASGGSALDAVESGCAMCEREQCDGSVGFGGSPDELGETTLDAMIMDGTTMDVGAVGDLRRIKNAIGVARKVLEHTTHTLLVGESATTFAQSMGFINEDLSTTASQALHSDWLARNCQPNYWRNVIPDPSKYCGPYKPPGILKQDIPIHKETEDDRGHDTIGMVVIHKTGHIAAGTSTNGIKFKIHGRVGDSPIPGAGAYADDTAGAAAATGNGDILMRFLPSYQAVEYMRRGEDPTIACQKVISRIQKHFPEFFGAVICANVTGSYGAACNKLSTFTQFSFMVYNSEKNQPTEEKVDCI
Protocol: Glycosylasparaginase activity was measured in citrate-phosphate buffer at pH 5.8 at 37 C. N-Acetyl-D-glucosamine released during the reaction was measured using the Morgan-Elson assay.

SMILES	Ki [µM]
N[C@H](CP(=O)(O)O)C(=O)O [CAS_23052-80-4]	900
CC(=O)NC1C(NC(=O)CN)OC(CO)C(O)C1O (stereo not given) [GlcNAc-Asn analogue, 10]	750
N[C@H](CS(=O)(=O)O)C(=O)O [L-cysteic acid]	1400
O=C(O)CC(Br)C(=O)O [L-2-bromosuccinic acid, 4]	2700
CC(=O)NC1C(NC(=O)CBr)OC(CO)C(O)C1O (stereo not given) [GlcNAc-Asn analogue, 12]	560
CC(CC(=O)O)C(=O)O [D,L-2-Methylsuccinic acid, 5]	700
O=C(O)CCC(=O)O [Succinic acid, 6]	5000
O=C(O)CC(Cl)C(=O)O [L-2-Chlorosuccinic acid, 3]	7700
CC(=O)NC1C(NC(=O)CCl)OC(CO)C(O)C1O (stereo not given) [GlcNAc-Asn analogue, 11]	640
N[C@@H](CC(=O)O)C(=O)O [L-Aspartic acid, 2]	600
